Measured values reported in US12291529B2, “Heterocyclic GLP-1 agonists” (Gasherbrum Bio, Inc., priority 2023, dated 2025).

Target: GLP-1 Receptor (Homo sapiens, UniProt P43220)
Test: GLP-1R agonist cAMP stimulation assay (HEK293/GLP1R/CRE-LUC cells, Cisbio cAMP dynamic 2 kit)
Assay type: cell-based
Details: Table 3, HEK293/GLP1R/CRE-LUC cells, 30 min
In short: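 HEK293 cells stably expressing human GLP-1R with CRE-Luc reporter, 1000 cells/well in DPBS with 0.5 mM IBMX and BSA. Cells treated with compound (½-log dilutions) for 30 min at 37 °C. cAMP read by HTRF at 665/615 nm; % activity relative to vehicle and maximal control.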

Chain of GLP-1 Receptor (P43220 24-463, species assumed): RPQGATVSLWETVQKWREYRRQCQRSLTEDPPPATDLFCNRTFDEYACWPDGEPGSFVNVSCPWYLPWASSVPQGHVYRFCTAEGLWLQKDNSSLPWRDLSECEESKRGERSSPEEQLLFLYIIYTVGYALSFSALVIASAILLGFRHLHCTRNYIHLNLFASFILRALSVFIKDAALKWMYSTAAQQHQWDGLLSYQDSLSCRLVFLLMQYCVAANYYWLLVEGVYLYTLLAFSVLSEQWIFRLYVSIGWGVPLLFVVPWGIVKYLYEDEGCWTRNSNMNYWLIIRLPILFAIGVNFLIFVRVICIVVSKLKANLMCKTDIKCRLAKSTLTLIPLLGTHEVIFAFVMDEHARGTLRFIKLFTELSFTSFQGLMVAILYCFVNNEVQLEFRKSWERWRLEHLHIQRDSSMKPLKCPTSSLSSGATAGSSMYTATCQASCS

Question: Which EC50 does the source give for `CN=S1(=O)CCC(Oc2ccc(-n3ccn(-c4c5c(nn4-c4cc(C)c(F)c(C)c4)CCN(C(=O)c4cc6cc([C@H]7CCOC(C)(C)C7)ccc6n4[C@@]4(c6noc(=O)[nH]6)C[C@@H]4C)[C@H]5C)c3=O)cc2C2CC2)CC1` (stereo partly shown) [Compound 237] here?
Answer: 0.07 nM

Question: For `Cc1cc(-n2nc3c(c2-n2ccn(-c4ccc(C5(S(C)(=N)=O)CC5)cc4)c2=O)[C@H](C)N(C(=O)c2cc4cc(C5CCOCC5)ccc4n2[C@@]2(c4noc(=O)[nH]4)C[C@@H]2C)CC3)cc(C)c1F` (single isomer, unassigned) [Compound 177], which EC50 is on record?
Answer: 0.026 nM

Question: How did the EC50 turn out when `Cc1cc(-n2nc3c(c2-n2ccn(-c4ccc(S(C)(=N)=O)cc4)c2=O)[C@H](C)N(C(=O)c2cc4cc(C5CCOCC5)ccc4n2[C@@]2(c4noc(=O)[nH]4)C[C@@H]2C)CC3)cc(C)c1F` (stereo partly shown) [Compound 110] was run?
Answer: 0.028 nM

Question: How did the EC50 turn out when `CC1=Cc2cc(-n3ccn(-c4c5c(nn4-c4cc(C)c(F)c(C)c4)CCN(C(=O)c4cc6cc([C@H]7CCOC(C)(C)C7)ccc6n4[C@@]4(c6noc(=O)[nH]6)C[C@@H]4C)[C@H]5C)c3=O)ccc2S(C)(=O)=N1` (single isomer, unassigned) [Compound 207] was run?
Answer: 0.02 nM

Question: With `Cc1cc(-n2nc3c(c2-n2ccn(-c4ccc(S5(=O)=NCCC5)cc4)c2=O)[C@H](C)N(C(=O)c2cc4cc(C5CCOCC5)ccc4n2C2(c4nsc(=O)[nH]4)CC2)CC3)cc(C)c1F` (single isomer, unassigned) [Compound 131] as the compound, how does the EC50 read?
Answer: 0.05 nM

Question: Which EC50 does the source give for `CN=S(=O)(c1ccc(-n2ccn(-c3c4c(nn3-c3cc(C)c(F)c(C)c3)CCN(C(=O)c3cc5cc([C@H]6CCOC(C)(C)C6)ccc5n3[C@@]3(c5noc(=O)[nH]5)C[C@@H]3C)[C@H]4C)c2=O)c(Cl)c1)C1CC1` (single isomer, unassigned) [Compound 205] here?
Answer: 0.072 nM

Question: With `CC[C@H]1C[C@]1(c1noc(=O)[nH]1)n1c(C(=O)N2CCc3nn(-c4cc(C)c(F)c(C)c4)c(-n4ccn(-c5ccc(S(=N)(=O)CC)cc5F)c4=O)c3[C@@H]2C)cc2cc(C3CCOCC3)ccc21` (single isomer, unassigned) [Compound 173] as the compound, how does the EC50 read?
Answer: 0.012 nM

Question: `CCN=S(=O)(c1ccc(-n2ccn(-c3c4c(nn3-c3cc(C)c(F)c(C)c3)CCN(C(=O)c3cc5cc([C@H]6CCOC(C)(C)C6)ccc5n3[C@@]3(c5noc(=O)[nH]5)C[C@@H]3C)[C@H]4C)c2=O)c(F)c1)C1CC1` (single isomer, unassigned) [Compound 208] was tested. Which EC50 did it give?
Answer: 0.11 nM

Question: With `Cc1cc(-n2nc3c(c2-n2ccn(-c4ccc5c(c4)CCCN=S5(=O)C4CC4)c2=O)[C@H](C)N(C(=O)c2cc4cc([C@H]5CCOC(C)(C)C5)ccc4n2[C@@]2(c4noc(=O)[nH]4)C[C@@H]2C)CC3)cc(C)c1F` (single isomer, unassigned) [Compound 213] as the compound, how does the EC50 read?
Answer: 0.12 nM

Question: `Cc1nnc(C2(n3c(C(=O)N4CCc5nn(-c6cc(C)c(F)c(C)c6)c(-n6ccn(-c7ccc(S8(=O)=NCCC8)cc7)c6=O)c5[C@@H]4C)cc4cc(C5CCOCC5)ccc43)CC2)o1` (single isomer, unassigned) [Compound 156] was tested. Which EC50 did it give?
Answer: 1.5 nM

Question: With `CN=S(=O)(c1ccc(-n2ccn(-c3c4c(nn3-c3cc(C)c(Cl)c(C)c3)CCN(C(=O)c3cc5cc([C@H]6CCOC(C)(C)C6)ccc5n3[C@@]3(c5noc(=O)[nH]5)C[C@@H]3C)[C@H]4C)c2=O)c(F)c1)C1CC1` (single isomer, unassigned) [Compound 203] as the compound, how does the EC50 read?
Answer: 0.032 nM

Question: Which EC50 does the source give for `CC1=Cc2cc(-n3ccn(-c4c5c(nn4-c4cc(C)c(F)c(C)c4)CCN(C(=O)c4cc6cc([C@H]7CCOC(C)(C)C7)ccc6n4[C@@]4(c6noc(=O)[nH]6)C[C@@H]4C)[C@H]5C)c3=O)ccc2S(C)(=O)=N1` (single isomer, unassigned) [Compound 206] here?
Answer: 0.02 nM

Question: Which EC50 does the source give for `CCS(=N)(=O)c1ccc(-n2ccn(-c3c4c(nn3-c3cc(C)c(F)c(C)c3)CCN(C(=O)c3cc5cc(C6CCOCC6)ccc5n3[C@@]3(c5noc(=O)[nH]5)C[C@@H]3C)[C@H]4C)c2=O)c(F)c1` (single isomer, unassigned) [Compound 138] here?
Answer: 0.001 nM

Question: `CNc1cc(-n2ccn(-c3c4c(nn3-c3cc(C)c(F)c(C)c3)CCN(C(=O)c3cc5cc(C6CCOCC6)ccc5n3[C@@]3(c5nc(=O)o[nH]5)C[C@@H]3C)[C@H]4C)c2=O)ccc1S(C)(=N)=O` (stereo partly drawn) [Compound 105, 3-[(1S,2S)-1-(2-{[(S)-2-(4-fluoro-3,5-xylyl)-3-{3-[4-(iminomethyloxothio)-3-(methylamino)phenyl]-2-oxo-1,3-dihydro-1-imidazolyl}-4-methyl-4,5,6,7-tetrahydro-2H-1,2,5-triazainden-5-yl]carbonyl}-5-(tetrahydro-2H-pyran-4-yl)-1-indolyl)-2-methylcyclopropyl]-1,2,4-oxadiazol-5(4H)-one] was tested. Which EC50 did it give?
Answer: 0.009 nM

Question: For `CN=S1(=O)CCC(Oc2ccc(-n3ccn(-c4c5c(nn4-c4cc(C)c(F)c(C)c4)CCN(C(=O)c4cc6cc(C7CCOCC7)ccc6n4[C@@]4(c6noc(=O)[nH]6)C[C@@H]4C)[C@H]5C)c3=O)c(F)c2C)CC1` (single isomer, unassigned) [Compound 232], which EC50 is on record?
Answer: 0.037 nM

Question: How did the EC50 turn out when `Cc1cc(-n2nc3c(c2-n2ccn(-c4ccc(CS(C)(=N)=O)cc4)c2=O)[C@H](C)N(C(=O)c2cc4cc(C5CCOCC5)ccc4n2[C@@]2(c4noc(=O)[nH]4)C[C@@H]2C)CC3)cc(C)c1F` (stereo partly drawn) [Compound 111, 3-[(1S,2S)-1-(2-{[(4S)-3-[3-(4-{[azanylidene(methyl)(oxo)-λ^6-sulfanyl]methyl}phenyl)-2-oxoimidazol-1-yl]-2-(4-fluoro-3,5-dimethylphenyl)-4-methyl-4,5,6,7-tetrahydropyrazolo[4,3-c]pyridin-5-yl]carbonyl}-5-(3,4,5,6-tetrahydro-2H-pyran-4-yl)indol-1-yl)-2-methylcyclopropyl]-4H,5H-1,2,4-oxadiazol-5-one] was run?
Answer: 0.014 nM

Question: How did the EC50 turn out when `COc1cc(-n2ccn(-c3c4c(nn3-c3cc(C)c(F)c(C)c3)CCN(C(=O)c3cc5cc(C6CCOCC6)ccc5n3[C@@]3(c5noc(=O)[nH]5)C[C@@H]3C)[C@H]4C)c2=O)ccc1S(C)(=N)=O` (stereo partly drawn) [Compound 123, 3-[(1S,2S)-1-(2-{[(S)-2-(4-fluoro-3,5-xylyl)-3-{3-[4-(iminomethyloxothio)-3-methoxyphenyl]-2-oxo-1,3-dihydro-1-imidazolyl}-4-methyl-4,5,6,7-tetrahydro-2H-1,2,5-triazainden-5-yl]carbonyl}-5-(tetrahydro-2H-pyran-4-yl)-1-indolyl)-2-methylcyclopropyl]-1,2,4-oxadiazol-5(4H)-one] was run?
Answer: 0.071 nM

Question: `Cc1cc(-n2nc3c(c2-n2ccn(-c4ccc5c(c4)CS(C)(=O)=N5)c2=O)[C@H](C)N(C(=O)c2cc4cc([C@H]5CCOC(C)(C)C5)ccc4n2[C@@]2(c4noc(=O)[nH]4)C[C@@H]2C)CC3)cc(C)c1F` (stereo partly drawn) [Compound 227, 5-{3-[(4S)-2-(4-fluoro-3,5-dimethylphenyl)-5-({5-[(4S)-2,2-dimethyl-3,4,5,6-tetrahydro-2H-pyran-4-yl]-1-[(1S,2S)-2-methyl-1-(5-oxo-4H-1,2,4-oxadiazol-3-yl)cyclopropyl]indol-2-yl}carbonyl)-4-methyl-4,5,6,7-tetrahydropyrazolo[4,3-c]pyridin-3-yl]-2-oxoimidazol-1-yl}-2-methyl-3H-2λ^6-benzo[c][1,2]thiazol-2-one] was tested. Which EC50 did it give?
Answer: 0.015 nM

Question: How did the EC50 turn out when `Cc1cc(-n2nc3c(c2-n2ccn(-c4ccc5c(c4)C=CS(C)(=O)=N5)c2=O)[C@H](C)N(C(=O)c2cc4cc([C@H]5CCOC(C)(C)C5)ccc4n2[C@@]2(c4noc(=O)[nH]4)C[C@@H]2C)CC3)cc(C)c1F` (single isomer, unassigned) [Compound 230] was run?
Answer: 0.048 nM

Question: How did the EC50 turn out when `CCS(=N)(=O)c1ccc(-n2ccn(-c3c4c(nn3-c3cc(C)c(F)c(C)c3)CCN(C(=O)c3cc5cc(C6CCOCC6)ccc5n3[C@@]3(c5noc(=O)[nH]5)C[C@@H]3C)[C@H]4C)c2=O)cc1` (single isomer, unassigned) [Compound 116] was run?
Answer: 0.049 nM

Question: With `CN=S(=O)(c1cc(F)c(-n2ccn(-c3c4c(nn3-c3cc(C)c(F)c(C)c3)CCN(C(=O)c3cc5cc([C@H]6CCOC(C)(C)C6)ccc5n3[C@@]3(c5noc(=O)[nH]5)C[C@@H]3C)[C@H]4C)c2=O)cc1C)C1CC1` (single isomer, unassigned) [Compound 193] as the compound, how does the EC50 read?
Answer: 0.1 nM

Question: How did the EC50 turn out when `Cc1cc(-n2nc3c(c2-n2ccn(-c4ccc(C5CCS(=N)(=O)CC5)cc4)c2=O)[C@H](C)N(C(=O)c2cc4cc(C5CCOCC5)ccc4n2[C@@]2(c4noc(=O)[nH]4)C[C@@H]2C)CC3)cc(C)c1F` (single isomer, unassigned) [Compound 182] was run?
Answer: 0.077 nM

Question: How did the EC50 turn out when `Cc1cc(-n2nc3c(c2-n2ccn(-c4ccc(S(C)(=N)=O)nc4)c2=O)[C@H](C)N(C(=O)c2cc4cc(C5CCOCC5)ccc4n2[C@@]2(c4noc(=O)[nH]4)C[C@@H]2C)CC3)cc(C)c1F` (stereo partly drawn) [Compound 102, 3-[(1S,2S)-1-(2-{[(4S)-3-(3-{6-[azanylidene(methyl)(oxo)-λ^6-sulfanyl]pyridin-3-yl}-2-oxoimidazol-1-yl)-2-(4-fluoro-3,5-dimethylphenyl)-4-methyl-4,5,6,7-tetrahydropyrazolo[4,3-c]pyridin-5-yl]carbonyl}-5-(3,4,5,6-tetrahydro-2H-pyran-4-yl)indol-1-yl)-2-methylcyclopropyl]-4H,5H-1,2,4-oxadiazol-5-one] was run?
Answer: 0.17 nM

Question: For `Cc1cc(-n2nc3c(c2-n2ccn(-c4ccc5c(c4)CCS5(=N)=O)c2=O)[C@H](C)N(C(=O)c2cc4cc(C5CCOCC5)ccc4n2[C@@]2(c4noc(=O)[nH]4)C[C@@H]2C)CC3)cc(C)c1F` (stereo partly drawn) [Compound 101, 3-[(1S,2S)-1-(2-{[(4S)-3-[3-(1-azanylidene-l-oxo-2,3-dihydro-1λ^6-benzo[b]thiophen-5-yl)-2-oxoimidazol-1-yl]-2-(4-fluoro-3,5-dimethylphenyl)-4-methyl-4,5,6,7-tetrahydropyrazolo[4,3-c]pyridin-5-yl]carbonyl}-5-(3,4,5,6-tetrahydro-2H-pyran-4-yl)indol-1-yl)-2-methylcyclopropyl]-4H,5H-1,2,4-oxadiazol-5-one], which EC50 is on record?
Answer: 0.067 nM

Question: How did the EC50 turn out when `Cc1cc(-n2nc3c(c2-n2ccn(-c4ccc5c(c4F)CCN=S5(C)=O)c2=O)[C@H](C)N(C(=O)c2cc4cc([C@H]5CCOC(C)(C)C5)ccc4n2[C@@]2(c4noc(=O)[nH]4)C[C@@H]2C)CC3)cc(C)c1F` (single isomer, unassigned) [Compound 185] was run?
Answer: 0.016 nM
